Experimental data: US6635671B1, “Compounds which affect mRNA stability and uses therefor” (Novation Pharmaceuticals Inc., priority 1998, dated 2003)
Read-outs that look alike come from different tables or passages of the source.

Columns and labels:
[1] = test system: THP-1 clone No. 53 (pGL2_Neo / pGL2-Control); test: Luciferase reporter gene assay, control clone No. 53 (no instability sequence); assay type: cell-based, human; design: Luciferase reporter gene assay, luciferase activity: unit not given here; conditions: for Luciferase reporter gene assay, luciferase activity: clone 53
Description: (§1) In order to obtain a vector for stable integration into THP-1 cells, a XhoI-SalI fragment of the neo resistant gene (expressing aminoglycoside 3′ phosphotransferase) derived from pMCIneo (Stratagene) is subcloned into the SalI site of pGL2Control (Promega). This resulting plasmid was called pGL2_Neo. A 30 bp fragment (containing three tandem AUUUA motifs, based on the IL-Iβ3′UTR sequence) obtained by annealing two complementary synthetic oligonucleotides (see FIG. 1) is subcloned into pGL2 Neo using the PflM1 restriction site.
(§2) The resulting vectors pGL2_Neo30 and pGL2_Neo are transfected into THP-1 cells by electroporation. 10^7 cells/ml in 1.3 mM KH2PO4, 7.36 m.M Na2HPO4, 2.44 mM KCl, 124 mm NaCl, 5 mM glucose, 9.6 μM MgCl2 and 16 μM CaCI2 pH 7.2 are transfected with 20 μg of DNA in a Bio-Rad Gene Pulser (250V, 690 μF and indefinite resistance) using a 0.4 cm cuvette. Cells are subsequently cultured in RPMI medium containing 10%FBS, 2mM L-Gln (L-glutamine), 50 μM 2mercaptoethanol and 600 μg/ml of G418 (geneticin). After transfection of pGL2_Neo30 and pGL2_Neo into THP-1 cells, stable cell lines are obtained by selection for G418 resistance and assayed for luciferase activity. One cell line of each transfection is chosen for further analysis; the pGL2_Neo30 cell line is referred to as clone No. 63 and the pGL2_Neo cell line as clone No. 53. No endogenous luciferase activity could be detected in normal THP-1 cells.
(§3) The transfected human monocytic leukemia cell lines, clones No. 53 and 63 are grown in RPMI medium supplemented with 110 U/ml penicillin, 100 μg/ml streptomycin, 2 mM L-Gln and 2 g/l NaHCO3. Heat-treated FBS (5%) is added before use. The cells are grown to a density of 5×10^5/ml and induced to differentiate with 100 U/ml (final concentration) γIFN. Three hours later, 10 μl of LPS (5 μg/ml final concentration) is added. This time point is designated time 0. Compounds are added at various times after LPS addition as indicated.
(§4) In order to adapt the system to the use of 96 well plates, cells are grown in Packard flat bottom white polystyrene microplates (Cat No.6005180) in RPMI medium lacking phenol red (AMIMED). Cells are plated at 5×10^4/well. After treatment of the cells, luciferase is measured using the Packard Luc Lite system (Cat. No.601691 1) according to the manufacturer's instructions in a final volume of 205 μl. Briefly, to a cell suspension of 5×10^5 cells/ml, γIFN (1000 U/ml Boehringer Mannheim No. 1050494) to a final concentration of 100 U/ml and 0.25% (v/v) Luc Lite Enhancer is added. After a 3 hour incubation LPS (50 μg/ml SIGMA L-8274) is added to give 5 μg/ml final concentration. The cells are then plated at 5×10^4/100 l/well into flat bottom white polystyrene microplates (Packard, Cat No. 6005180) and incubated for 16 hours. 5 μl of compound solution or control vehicle is then added and the cells are further incubated as indicated. 100 μl of luciferase substrate solution is added and the plates are covered with TopSeal-A press-on adhesive sealing film (Packard Cat.No. 6005185) before measuring luminescence with a Packard Top Count Scintillation Counter at 22° C. The luciferase signal is stable for at least 90 min.
(§5) The THP-1 cell lines, clone No. 63 (containing PGL2_Neo30) and clone No. 53 (containing pGL2-Control) are grown, differentiated and stimulated with γIFN and LPS identical to normal THP-1 cells. Radicicol analog A is added 16 hours after the addition of LPS and cell extracts are then taken 8 hours later or as indicated. Luciferase activity is inhibited by 1 μM radicicol analog A on average by 50%±17%, in some cases inhibition was as great as 93%, whereas up to 5×10^−6M of radical analog A has no effects on the control clone No. 53, FIG. 3 (solid bars indicate clone No. 53, open bars clone No. 63).
(§6) A number of radicicol analogues are tested for their activity in the reporter assay substantially as described in the previous Examples.

[2] = test system: THP-1 clone No. 63 (pGL2_Neo30; luciferase mRNA with three tandem AUUUA motifs of the IL-1β 3′UTR); test: Luciferase reporter gene assay, clone No. 63 (pGL2_Neo30, with mRNA instability sequence); assay type: cell-based, human; design: Luciferase reporter gene assay, luciferase activity: unit not given here; conditions: for Luciferase reporter gene assay, luciferase activity: clone 63; for inhibition at 1 µM: Homo sapiens, THP-1, clone No. 63
Description: as §1, §2, §3, §4, §5, §6

IL-6 mRNA = conditions: THP-1 cells activated by IFN-γ and LPS; cited from earlier work
TNF-α mRNA = conditions: THP-1 cells activated by IFN-γ and LPS; cited from earlier work
IL-1β mRNA = conditions: THP-1 cells activated by IFN-γ and LPS; cited from earlier work
IL-1β = conditions: THP-1 cells activated by IFN-γ and LPS; cited from earlier work

## COc1cc(O)c2c(c1)/C=C/CC(O)C(O)C(=O)/C=C\CC(C)OC2=O (stereo not shown)
[1]; 0.5 μM
  Luciferase reporter gene assay, luciferase activity: 114
[1]; 1 μM
  Luciferase reporter gene assay, luciferase activity: 105
[1]; 5 μM
  Luciferase reporter gene assay, luciferase activity: 107
[2]; 0.5 μM
  Luciferase reporter gene assay, luciferase activity: 97
[2]; 1 μM
  Luciferase reporter gene assay, luciferase activity: 88
[2]; 5 μM
  Luciferase reporter gene assay, luciferase activity: 87

## C[C@@H]1C[C@H]2O[C@@H]2/C=C\C=C\C(=O)Cc2c(Cl)c(O)cc(O)c2C(=O)O1
[1]; 0.5 μM
  Luciferase reporter gene assay, luciferase activity: 68
[1]; 1 μM
  Luciferase reporter gene assay, luciferase activity: 51
[1]; 5 μM
  Luciferase reporter gene assay, luciferase activity: 40
[2]; 0.5 μM
  Luciferase reporter gene assay, luciferase activity: 42
[2]; 1 μM
  Luciferase reporter gene assay, luciferase activity: 18
[2]; 5 μM
  Luciferase reporter gene assay, luciferase activity: 3

## C[C@@H]1C[C@H]2O[C@@H]2CCCCC(=O)Cc2c(Cl)c(O)cc(O)c2C(=O)O1
[1]; 0.5 μM
  Luciferase reporter gene assay, luciferase activity: 99
[1]; 1 μM
  Luciferase reporter gene assay, luciferase activity: 77
[1]; 5 μM
  Luciferase reporter gene assay, luciferase activity: 69
[2]; 0.5 μM
  Luciferase reporter gene assay, luciferase activity: 88
[2]; 1 μM
  Luciferase reporter gene assay, luciferase activity: 64
[2]; 5 μM
  Luciferase reporter gene assay, luciferase activity: 57

## C[C@@H]1C[C@H]2O[C@@H]2CCCCC(=O)Cc2cc(O)cc(O)c2C(=O)O1
[1]; 0.5 μM
  Luciferase reporter gene assay, luciferase activity: 83
[1]; 1 μM
  Luciferase reporter gene assay, luciferase activity: 81
[1]; 5 μM
  Luciferase reporter gene assay, luciferase activity: 70
[2]; 0.5 μM
  Luciferase reporter gene assay, luciferase activity: 80
[2]; 1 μM
  Luciferase reporter gene assay, luciferase activity: 66
[2]; 5 μM
  Luciferase reporter gene assay, luciferase activity: 61

## COc1cc(O)c2c(c1)/C=C/CC(O)C(O)C(=O)CCCC(C)OC2=O (stereo not shown)
[1]; 0.5 μM
  Luciferase reporter gene assay, luciferase activity: 103
[1]; 1 μM
  Luciferase reporter gene assay, luciferase activity: 122
[1]; 5 μM
  Luciferase reporter gene assay, luciferase activity: 104
[2]; 0.5 μM
  Luciferase reporter gene assay, luciferase activity: 107
[2]; 1 μM
  Luciferase reporter gene assay, luciferase activity: 93
[2]; 5 μM
  Luciferase reporter gene assay, luciferase activity: 70

## COc1cc(O)c2c(c1OC)/C=C/C[C@H](O)[C@H](O)C(=O)/C=C/C[C@H](C)OC2=O
[1]; 0.5 μM
  Luciferase reporter gene assay, luciferase activity: 97
[1]; 1 μM
  Luciferase reporter gene assay, luciferase activity: 91
[1]; 5 μM
  Luciferase reporter gene assay, luciferase activity: 55
[2]; 0.5 μM
  Luciferase reporter gene assay, luciferase activity: 96
[2]; 1 μM
  Luciferase reporter gene assay, luciferase activity: 94
[2]; 5 μM
  Luciferase reporter gene assay, luciferase activity: 7

## COc1cc(O)c2c(c1OC)/C=C/C[C@H](O)[C@H](O)C(=O)/C=C\C[C@H](C)OC2=O [drawing 13]
[1]; 0.5 μM
  Luciferase reporter gene assay, luciferase activity: 136
[1]; 1 μM
  Luciferase reporter gene assay, luciferase activity: 140
[1]; 5 μM
  Luciferase reporter gene assay, luciferase activity: 108
[2]; 0.5 μM
  Luciferase reporter gene assay, luciferase activity: 69
[2]; 1 μM
  Luciferase reporter gene assay, luciferase activity: 32
[2]; 5 μM
  Luciferase reporter gene assay, luciferase activity: 9

## COc1cc(O)c2c(c1OC)/C=C/C[C@H](O)[C@H](O)C(=O)/C=C\C[C@H](C)OC2=O [radicicol analog A]
IL-6 mRNA
  Time of degradation of IL-6 mRNA to undetectable levels: 5 to 8 h
TNF-α mRNA
  Time of degradation of TNF-α mRNA to undetectable levels: 5 to 8 h
IL-1β mRNA
  Time of degradation of IL-1β mRNA to undetectable levels: 5 to 8 h
[1]; clone No. 53, up to 5×10^−6M
  Effect on luciferase activity of control clone: no effects
IL-1β
  Secretion of IL-1β: inhibited the secretion of IL-1β
[2]; 1 μM, added 16 h after LPS, extracts 8 h later, read-out: Inhibition of luciferase activity, on average
  inhibition at 1 µM: 50%
[2]; 1 μM, read-out: Inhibition of luciferase activity, greatest inhibition in some cases
  inhibition at 1 µM: 93%
